Molecular target: T1, His-p53 Y220C (94-294) protein (Homo sapiens, UniProt P04637, Y220C)
T1 construct: His-p53 Y220C (94-294) protein
Assay: In vitro DNA binding assay (HTRF)
Format: biochemical
Settings: % activation normalized to 2 μM Ref-1a high control

Row | Structure (SMILES) | EC50
1 | COc1cc(C(=O)NC2CCN(C)CC2)ccc1NCC#Cc1sc2c(NC3CCN(C)CC3F)cccc2c1CC(F)(F)F (racemic) [Example 47, 4-((3-(7-((3-fluoro-1-methylpiperidin-4-yl)amino)-3-(2,2,2-trifluoroethyl)benzo[b]thiophen-2-yl)prop-2-yn-1-yl)amino)-3-methoxy-N-(1-methylpiperidin-4-yl)benzamide] | 20 nM
2 | CN1CC[C@@H](Nc2cccc3c(CC(F)(F)F)c(C#CCNc4ccc(P(C)(C)=O)c5c4OC(F)(F)O5)sc23)[C@@H](F)C1 [Example 164, (2,2-difluoro-7-((3-(7-(((3S,4R)-3-fluoro-1-methylpiperidin-4-yl)amino)-3-(2,2,2-trifluoroethyl)benzo[b]thiophen-2-yl)prop-2-yn-1-yl)amino)benzo[d][1,3]dioxol-4-yl)dimethylphosphine oxide] | 120 nM
3 | COCCOc1cc(S(C)(=O)=O)ccc1NCC#Cc1sc2c(NC3CCN(C)CC3)cccc2c1CC(F)(F)F [Example 14, N-[2-[3-[2-(2-methoxyethoxy)-4-methylsulfonyl-anilino]prop-1-ynyl]-3-(2,2,2-trifluoroethyl)benzothiophen-7-yl]-1-methyl-piperidin-4-amine] | 199 nM
4 | COc1cc(S(C)(=O)=O)ccc1NCC#Cc1sc2c(NC3CCNCC3)cccc2c1CC(F)(F)F [Example 38, N-(2-(3-((2-methoxy-4-(methylsulfonyl)phenyl)amino)prop-1-yn-1-yl)-3-(2,2,2-trifluoroethyl)benzo[b]thiophen-7-yl)piperidin-4-amine] | 194 nM
5 | CCP(=O)(CC)c1ccc(NCC#Cc2sc3c(NC4CCN(C5CCOCC5)CC4)cccc3c2CC(F)(F)F)c(OC)c1 [Example 155, diethyl(3-methoxy-4-((3-(7-((1-(tetrahydro-2H-pyran-4-yl)piperidin-4-yl)amino)-3-(2,2,2-trifluoroethyl)benzo[b]thiophen-2-yl)prop-2-yn-1-yl)amino)phenyl)phosphine oxide] | 147 nM
6 | CN1CC[C@@H](Nc2cccc3c(CC(F)(F)F)c(C#CCNc4cc(P(C)(C)=O)n[nH]4)sc23)[C@@H](F)C1 [Example 204, (5-((3-(7-(((3S,4R)-3-fluoro-1-methylpiperidin-4-yl)amino)-3-(2,2,2-trifluoroethyl)benzo[b]thiophen-2-yl)prop-2-yn-1-yl)amino)-1H-pyrazol-3-yl)dimethylphosphine oxide] | 816 nM
7 | CCP(=O)(CC)c1ccc(NCC#Cc2sc3c(NC4CCN(C)CC4F)cccc3c2CC(F)(F)F)c(OC)c1 (stereo not shown) [Example 35, diethyl(4-((3-(7-(((Z)-3-fluoro-1-methylpiperidin-4-yl)amino)-3-(2,2,2-trifluoroethyl)benzo[b]thiophen-2-yl)prop-2-yn-1-yl)amino)-3-methoxyphenyl)phosphine oxide] | 38 nM
8 | CN1CC[C@@H](Nc2cccc3c(CC(F)(F)F)c(C#CCNc4ccc(S(C)(=O)=O)cc4P(C)(C)=O)sc23)[C@@H](F)C1 [Example 171, (2-((3-(7-(((3S,4R)-3-fluoro-1-methylpiperidin-4-yl)amino)-3-(2,2,2-trifluoroethyl)benzo[b]thiophen-2-yl)prop-2-yn-1-yl)amino)-5-(methylsulfonyl)phenyl)dimethylphosphine oxide] | 178 nM
9 | COc1cc(S(C)(=O)=O)ccc1NCC#Cc1sc2c(N(C)C3CCN(C)CC3F)cccc2c1CC(F)(F)F (stereo not shown) [Example 42, (Z)-3-fluoro-N-(2-(3-((2-methoxy-4-(methylsulfonyl)phenyl)amino)prop-1-yn-1-yl)-3-(2,2,2-trifluoroethyl)benzo[b]thiophen-7-yl)-N,1-dimethylpiperidin-4-amine] | 654 nM
10 | COc1cc(S(C)(=O)=O)ccc1NCC#Cc1cc2c(N[C@H]3CC[C@@H](N4CC5(COC5)C4)CC3)cccc2n1CC(F)(F)F [Example 39, Cis-N-(4-(2-oxa-6-azaspiro[3.3]heptan-6-yl)cyclohexyl)-2-(3-((2-methoxy-4-(methylsulfonyl)phenyl)amino)prop-1-yn-1-yl)-1-(2,2,2-trifluoroethyl)-1H-indol-4-amine] | 157 nM
11 | COc1cc(P(=O)(C2CC2)C2CC2)ccc1NCC#Cc1sc2c(N[C@H]3CCN(C)C[C@H]3F)cccc2c1CC(F)(F)F [Example 140, dicyclopropyl(4-((3-(7-(((3R,4S)-3-fluoro-1-methylpiperidin-4-yl)amino)-3-(2,2,2-trifluoroethyl)benzo[b]thiophen-2-yl)prop-2-yn-1-yl)amino)-3-methoxyphenyl)phosphine oxide] | 129 nM
12 | COc1cc(S(=O)(=O)N(C)C)ccc1NCC#Cc1sc2c(NC3CCN(C)CC3)cccc2c1CC(F)(F)F [Example 21, 3-methoxy-N,N-dimethyl-4-((3-(7-((1-methylpiperidin-4-yl)amino)-3-(2,2,2-trifluoroethyl)benzo[b]thiophen-2-yl)prop-2-yn-1-yl)amino)benzenesulfonamide] | 341 nM
13 | COc1cc(C(=O)NO)ccc1NCC#Cc1sc2c(NC3CCN(C)CC3F)cccc2c1CC(F)(F)F (stereo not shown) [Example 58, 4-((3-(7-(((Z)-3-fluoro-1-methylpiperidin-4-yl)amino)-3-(2,2,2-trifluoroethyl)benzo[b]thiophen-2-yl)prop-2-yn-1-yl)amino)-N-hydroxy-3-methoxybenzamide] | 90 nM
14 | CN1CCC(Nc2cccc3c(CC(F)(F)F)c(C#CCNc4ccc(S(C)(=O)=O)c5cc[nH]c45)sc23)CC1 [Example 31, N-(3-(7-((1-methylpiperidin-4-yl)amino)-3-(2,2,2-trifluoroethyl)benzo[b]thiophen-2-yl)prop-2-yn-1-yl)-4-(methylsulfonyl)-1H-indol-7-amine] | 535 nM
15 | COc1cc(S(C)(=O)=O)ccc1NCC#Cc1sc2c(NC3CCN(CCF)CC3)cccc2c1CC(F)(F)F [Example 36, 1-(2-fluoroethyl)-N-(2-(3-((2-methoxy-4-(methylsulfonyl)phenyl)amino)prop-1-yn-1-yl)-3-(2,2,2-trifluoroethyl)benzo[b]thiophen-7-yl)piperidin-4-amine] | 305 nM
16 | COc1cc(S(C)(=O)=O)c(F)cc1NCC#Cc1sc2c(NC3CCN(C)CC3)cccc2c1CC(F)(F)F [Example 7, N-(2-(3-((5-fluoro-2-methoxy-4-(methylsulfonyl)phenyl)amino)prop-1-yn-1-yl)-3-(2,2,2-trifluoroethyl)benzo[b]thiophen-7-yl)-1-methylpiperidin-4-amine] | 200 nM
17 | COc1cc(S(C)(=O)=O)ccc1NCC#Cc1sc2c(NC3CCC(N(C)C)CC3)cccc2c1CC(F)(F)F (stereo not shown) [Example 16, N1-(2-(3-((2-methoxy-4-(methylsulfonyl)phenyl)amino)prop-1-yn-1-yl)-3-(2,2,2-trifluoroethyl)benzo[b]thiophen-7-yl)-N4,N4-dimethylcyclohexane-1,4-diamine] | 124 nM
18 | COc1cc(P(C)(C)=O)ccc1NCC#Cc1sc2c(NC3CCN(C)CC3F)cccc2c1CC#N (stereo not shown) [Example 133, 2-(2-(3-((4-(dimethylphosphoryl)-2-methoxyphenyl)amino)prop-1-yn-1-yl)-7-(((E)-3-fluoro-1-methylpiperidin-4-yl)amino)benzo[b]thiophen-3-yl)acetonitrile] | 311 nM
19 | COc1cc(S(C)(=O)=O)ccc1NCC#Cc1sc2c(NC3CC4CC3CN4)cccc2c1CC(F)(F)F (stereo not shown) [Example 28, N-(2-(3-((2-methoxy-4-(methylsulfonyl)phenyl)amino)prop-1-yn-1-yl)-3-(2,2,2-trifluoroethyl)benzo[b]thiophen-7-yl)-2-azabicyclo[2.2.1]heptan-5-amine] | 284 nM
20 | CCN1CC[C@@H](Nc2cccc3c(CC(F)(F)F)c(C#CCNc4ccc(P(C)(C)=O)cc4OC)sc23)[C@@H](F)C1 (racemic) [Example 100, (4-((3-(7-(((Z)-1-ethyl-3-fluoropiperidin-4-yl)amino)-3-(2,2,2-trifluoroethyl)benzo[b]thiophen-2-yl)prop-2-yn-1-yl)amino)-3-methoxyphenyl)dimethylphosphine oxide] | 40 nM
21 | COc1cc(S(C)(=O)=O)ccc1NCC#Cc1sc2c(NC3CCN(CC(F)(F)F)CC3)cccc2c1CC(F)(F)F [Example 37, N-(2-(3-((2-methoxy-4-(methylsulfonyl)phenyl)amino)prop-1-yn-1-yl)-3-(2,2,2-trifluoroethyl)benzo[b]thiophen-7-yl)-1-(2,2,2-trifluoroethyl)piperidin-4-amine] | 3880 nM
22 | COc1cc(C(=O)N2CCN(C)CC2)ccc1NCC#Cc1sc2c(NC3CCN(C)CC3F)cccc2c1CC(F)(F)F (stereo not shown) [Example 49, (4-((3-(7-(((Z)-3-fluoro-1-methylpiperidin-4-yl)amino)-3-(2,2,2-trifluoroethyl)benzo[b]thiophen-2-yl)prop-2-yn-1-yl)amino)-3-methoxyphenyl)(4-methylpiperazin-1-yl)methanone] | 38 nM
23 | CN1CC[C@H](Nc2cccc3c(CC(F)(F)F)c(C#CCNc4ccc(S(N)(=O)=O)cc4)sc23)[C@H](F)C1 (racemic) [Example 5, 4-((3-(7-(((3R,4S)-3-fluoro-1-methylpiperidin-4-yl)amino)-3-(2,2,2-trifluoroethyl)benzo[b]thiophen-2-yl)prop-2-yn-1-yl)amino)benzenesulfonamide] | 32 nM
24 | CNC(=O)c1ccc(NCC#Cc2sc3c(N[C@@H]4CCN(C)C[C@@H]4F)cccc3c2CC(F)(F)F)c(C#N)c1 (racemic) [Example 95, 3-cyano-4-((3-(7-(((Z)-3-fluoro-1-methylpiperidin-4-yl)amino)-3-(2,2,2-trifluoroethyl)benzo[b]thiophen-2-yl)prop-2-yn-1-yl)amino)-N-methylbenzamide] | 133 nM
25 | CSc1c(NCC#Cc2sc3c(N[C@@H]4CCN(C)C[C@@H]4F)cccc3c2CC(F)(F)F)ccc(P(C)(C)=O)c1F [Example 221, (2-fluoro-4-((3-(7-(((3S,4R)-3-fluoro-1-methylpiperidin-4-yl)amino)-3-(2,2,2-trifluoroethyl)benzo[b]thiophen-2-yl)prop-2-yn-1-yl)amino)-3-(methylthio)phenyl)dimethylphosphine oxide] | 169 nM

From patent US20240400591A1 (Jacobio Pharmaceuticals Co., Ltd., priority 2021, published 2024)
